Assay results reported in patent US20260209260A1, “VECTORIZED NHC IRIDIUM(III) COMPLEXES AND USE THEREOF IN PHOTODYNAMIC THERAPY AND/OR DIAGNOSTIC” (CENTRE NATIONAL DE LA RECHERCHE SCIENTIFIQUE, priority 2022, published 2026).
Where two headings read alike, the source gives them in different places.

Legend:
Format in all cases: cell-based, Human
A549 lung cancer cells = experiment: Cell viability assay (MTT), dark and blue light; conditions: for GI50: read-out: GI50
Summary of the method: (§1)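 Cells seeded at 5,000–10,000/well, attached overnight, then exposed to complexes in DMSO (final 0.1% v/v) for 72 h in the dark, or for 8 h dark followed by 10 min irradiation and dark incubation to 72 h. MTT added 3–4 h at 37 °C; formazan dissolved in DMSO, read at 570 nm.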

[1] = system: MiaPaCa2 pancreas cancer cells; experiment: Cell viability assay (MTT), dark and blue light
Summary of the method: as §1

[2] = system: cancer cells (all tumor cell lines tested); experiment: Cell viability assay (MTT), summary over the cancer cell lines tested
Experimental: Cells were grown in humidified incubators at 37° C. in 5% CO2. Murine MC3T3 osteoblast and NIH-3T3 fibroblast cells-used as non-tumor cell models-were cultured in a-MEM medium and DMEM medium supplemented with 10% fetal bovine serum (FBS) and 1% Penicillin/Streptomycin (P/S) antibiotics, respectively. Human T24 bladder, MGHU3 bladder, Scaber bladder, A549 lung, MCF7 breast, MiaPaCa2 pancreas cancer cells were cultured in DMEM medium supplemented with 10% FBS and 1% P/S antibiotics. […] Human Hela cervix and HepG2 liver cancer cells were cultured EMEM medium supplemented with 10% FBS and 1% P/S antibiotics.
MTT reagent (3-(4,5-dimethylthiazol-2-yl)-2,5-diphenyltetrazolium bromide) was used to determine cell death as originally described by Mosmann. Briefly, cells were seeded from 5,000 to 10,000 cells/well in 24-well plates (1 mL) depending on the cell type and allowed to attach overnight. The complexes were prepared in DMSO. The concentration of the complexes was calculated based on the elemental composition of the complexes determined by the elemental analyses. All cell viability experiments were carried out with a fixed concentration of 0.1% (v/v) DMSO. After 72 h of treatment, cells were incubated at 37° C. and 5% CO2 with 25 μL of MTT solution (5 mg/ml; Sigma-Aldrich) in 24-well plates for 3 to 4 h. After solubilization with 500 μL of DMSO, formazan was quantified spectrophotometrically with a microplate reader at 570 nm absorbance (ClarioSTAR, BMG LabTech). […] All the results were calculated from data obtained in at least three independent experiments performed in triplicate.
Two sets of experiments were conducted in parallel for each complex to be studied:
1. The cells were incubated with the different complexes (in the dark) for 72 h.
2. The cells were incubated for 8 h with the different complexes (in the dark), then irradiated for 10 min, followed by an incubation in the dark up to 72 h.

[3] = system: PC-3 prostate cancer cells (PSMA-negative); experiment: Cell viability assay (MTT), dark and blue light; conditions: for Photosensitizing index (PI): PC3, dark vs blue light
Summary of the method: (§2)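 Dark versus photoactivated cytotoxicity is compared by MTT in RPMI-grown cells, with 72 h total compound exposure at 0.1% DMSO. Blue light (458 nm) is given for 10 min after an 8 h incubation; data come from at least three independent triplicate experiments.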

MCF7 breast cancer cells = experiment: Cell viability assay (MTT), dark and blue light
Summary of the method: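 Cells seeded 5,000–10,000/well, treated in 0.1% (v/v) DMSO either 72 h in dark or 8 h dark, 10 min 458 nm blue LED irradiation (9.6 W), then dark to 72 h. Viability by MTT, absorbance 570 nm; at least three independent experiments in triplicate.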

[4] = system: 22rV1 prostate cancer cells (PSMA-positive); experiment: Cell viability assay (MTT), dark and blue light; conditions: for Photosensitizing index (PI): 22Rv1, dark vs blue light
Summary of the method: as §2

[5] = system: C4-2B prostate cancer cells (PSMA-positive); experiment: Cell viability assay (MTT), dark and blue light; conditions: for Photosensitizing index (PI): dark vs blue light
Summary of the method: as §2

[6] = PC3, blue light, read-out: GI50
[7] = 22Rv1, blue light, read-out: GI50
[8] = 8 h in the dark, blue light 458 nm 10 min, then dark up to 72 h, read-out: GI50 22Rv1 Blue
[9] = in the dark, 72 h, read-out: GI50 22Rv1 Dark
[10] = 8 h in the dark, blue light 458 nm 10 min, then dark up to 72 h, read-out: GI50 PC-3 Blue
[11] = in the dark, 72 h, read-out: GI50 PC-3 Dark
[12] = C4-2b, blue light, read-out: GI50
[13] = in the dark, 72 h, read-out: GI50 C4-2b Dark

Compound	GI50 [3, 6] [µM]	Photosensitizing index (PI) [3]	GI50 [4, 7] [µM]	Photosensitizing index (PI) [4]	GI50 ([4]; 22Rv1, dark, read-out: GI50) [µM]	GI50 [4, 8] [µM]	SI (vs MC3T3) 22Rv1 Blue ([4]; blue light 458 nm)	SI (vs MC3T3) 22Rv1 Dark ([4]; dark)	GI50 [4, 9] [µM]	GI50 [3, 10] [µM]	GI50 ([3]; PC3, dark, read-out: GI50) [µM]	SI (vs MC3T3) PC-3 Dark ([3]; dark)	GI50 [3, 11] [µM]	GI50 [5, 12] [µM]	Photosensitizing index (PI) ([5]; C4-2b)	GI50 ([5]; C4-2b, dark, read-out: GI50) [µM]	SI (vs NIH-3T3) C4-2b Blue ([5]; blue light 458 nm)	GI50 [5, 13] [µM]	also measured
F[P-](F)(F)(F)(F)F.O=C(NCCCn1cc[n+]2[c]1[Ir-3]13([c]4cccc5ccc6ccc[n+]1c6c45)([c]1cccc4ccc5ccc[n+]3c5c14)[n+]1ccccc1-2)[c-]1cccc1.[Fe+2].c1cc[cH-]c1 [IV-i]	0.27	21.9																	SI (vs NIH-3T3) (A549 lung cancer cells; A549, blue light): 17.8; GI50 (A549 lung cancer cells; A549, blue light): 1000 nM; SI (vs MC3T3) (A549 lung cancer cells; A549, dark): 2.2; Photosensitizing index (PI) (A549 lung cancer cells; A549, dark vs blue light): 4.6; GI50 (A549 lung cancer cells; A549, dark): 4600 nM; Photosensitizing index (PI) ([1]; MiaPaCa2, dark vs blue light): 5.1; SI (vs NIH-3T3) ([1]; MiapaCa2, blue light): 48.1; GI50 ([1]; MiapaCa2, blue light, read-out: GI50): 370 nM; PI values, mean over cancer cells ([2]; dark vs blue light 458 nm): 1.6 fold; SI (vs MC3T3) ([3]; PC3, dark): 1.7; SI (vs NIH-3T3) ([3]; PC3, dark): 7.0; SI (vs NIH-3T3) (MCF7 breast cancer cells; MCF7, blue light): 28.7; SI (vs MC3T3) (MCF7 breast cancer cells; MCF7, dark): 1.9; SI (vs NIH-3T3) (MCF7 breast cancer cells; MCF7, dark): 7.8; Photosensitizing index (PI) (MCF7 breast cancer cells; MCF7, dark vs blue light): 8.5; GI50 (MCF7 breast cancer cells; MCF7, dark, read-out: GI50): 5.3 µM
F[P-](F)(F)(F)(F)F.O=C(O)CC[C@H](NC(=O)N[C@@H](CCCCNC(=O)CCn1cc[n+]2[c]1[Ir-3]13([c]4cccc5ccc6ccc[n+]1c6c45)([c]1cccc4ccc5ccc[n+]3c5c14)[n+]1ccccc1-2)C(=O)O)C(=O)O [III-i]	8.72	6.6	1.96	6.4	12.5	2	20.7	20.0	12.5	8.7	57.2	4.4	57.2	2.69	5.5	14.8	20.7	14.8	SI (vs NIH-3T3) 22Rv1 Dark ([4]; dark): >8; SI (vs MC3T3) PC-3 Blue ([3]; blue light 458 nm): 4.7; SI (vs NIH-3T3) PC-3 Dark ([3]; dark): >1.7; GI50 ([5]; 8 h in the dark, blue light 458 nm 10 min, then dark up to 72 h, read-out: GI50 C4-2b Blue): 2.7 µM; SI (vs NIH-3T3) C4-2b Dark ([5]; dark): >6.7
F[P-](F)(F)(F)(F)F.O=C(O)CC[C@H](NC(=O)N[C@@H](CCCCNC(=O)CCn1cc[n+]2[c]1[Ir-3]13([c]4ccccc4-c4sc5ccccc5[n+]41)([c]1ccccc1-c1sc4ccccc4[n+]13)[n+]1ccccc1-2)C(=O)O)C(=O)O [III-k]	2.1	4.6	0.39	13.1	5.1	8.39	87.1	18.8	5.1	2.1	9.6	9.9	9.8	0.41	12.9	5.3	73.9	5.3	selectivity for cancer cells over non-tumor cells, in words [2]: most selective effects under irradiated conditions; SI (vs NIH-3T3) 22Rv1 Blue ([4]; blue light 458 nm): 77.3; SI (vs NIH-3T3) PC-3 Blue ([3]; blue light 458 nm): 14.3; SI (vs MC3T3) C4-2b Blue ([5]; blue light 458 nm): 83.3; SI (vs MC3T3) C4-2b Dark ([5]; dark): 17.9
